Where two headings read alike, the source gives them in different places.
Legend:
PDE4 = PDE4 inhibition, scintillation proximity assay (SPA); type: biochemical
In short: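 Scintillation proximity read-out: [2,8-3H]-cAMP hydrolysis by PDE4 ran 120 min at room temperature in Tris-HCl pH 7.4 buffer with 8.3 mM MgCl2, 1.7 mM EGTA and 3 mg/mL BSA. Bead-bound product (YSi-SPA with ZnSO4, 15 min) counted; blank lacks enzyme, control has DMSO only.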

[1] = Hepatic metabolic stability (rat liver microsome method); type: in vitro ADME; conditions: rat liver microsomes 0.5 mg/mL, test substance 1 μM, NADPH 1 mM, 37° C., 30 minutes
Method: Metabolic stability in rat liver microsomes was evaluated by the following method. In 100 mM of potassium phosphate buffer solution (pH 7.4), liver microsomes (concentration at reaction: 0.5 mg/mL) and the test substance (concentration at reaction: 1 μM) were preincubated at 37° C. Five minutes later, 100 mM of potassium phosphate buffer (pH 7.4) solution of NADPH (concentration at reaction: 1 mM) was mixed thereto to start the reaction. After a predetermined time passed, acetonitrile was mixed to the reaction mixture to stop the reaction. Here, the reaction time was 0 and 30 minutes, and drug concentration measurement was performed for each time period using LC-MS. The % remaining value of the test compound was calculated from the value for 0 minutes and the value for 30 minutes, using the calculation formula below: % Remaining=(Value for 30 Minutes/Value for 0 Minutes)×100
The results of measuring the rat liver microsome metabolic Stability (% remaining for 30-minute reaction) for the test compound by the above method were evaluated in accordance with the following evaluated basis; A: a % remaining rate of 75% or more, B: 60% or more and less than 75%, C: 45% or more and less than 60%, and D: less than 45%.

[2] = scintillation proximity assay, class symbols, read-out: PDE4 Inhibitory Activity

c1csc(-c2ccc(O[C@@H]3CCOC3)c3nc(N4CC5CC(C4)N5)oc23)n1 [Example 324, 2-(3,6-Diazabicyclo[3.1.1]heptan-3-yl)-4-(((R)-tetrahydrofuran-3-yl)oxy)-7-(thiazol-2-yl)benzo[d]oxazole]
IC50 (PDE4; scintillation proximity assay (SPA), evaluated as classes A, B, C, read-out: PDE4 Inhibitory Activity (concentration for the inhibition rate of 50%)): < 100 nM
Residual ratio (% remaining for 30-minute reaction) [1]: A (a % remaining rate of 75% or more)

c1csc(-c2ccc(OC3COC3)c3nc(N4CC5CC(C4)N5)oc23)n1 [Example 325, 2-(3,6-Diazabicyclo[3.1.1]heptan-3-yl)-4-(oxetan-3-yloxy)-7-(thiazol-2-yl)benzo[d]oxazole]
IC50 (PDE4; [2]): < 100 nM
Residual ratio (% remaining for 30-minute reaction) [1]: A (a % remaining rate of 75% or more)

CC(C)(O)C(F)(F)Oc1ccc(-c2ncns2)c2oc(N3CC4CCC(C3)N4)nc12 [Example 327, 1-((2-(3,8-Diazabicyclo[3.2.1]octan-3-yl)-7-(1,2,4-thiadiazol-5-yl)benzo[d]oxazol-4-yl)oxy)-1,1-difluoro-2-methylpropan-2-ol]
IC50 (PDE4; [2]): < 100 nM
Residual ratio (% remaining for 30-minute reaction) [1]: B (60% or more and less than 75%)

Cn1ccc(-c2ccc(OC(F)(F)C(C)(C)O)c3nc(N4CC5CCC(C4)N5)oc23)n1 [Example 328, 1-((2-(3,8-Diazabicyclo[3.2.1]octan-3-yl)-7-(1-methyl-1H-pyrazol-3-yl)benzo[d]oxazol-4-yl)oxy)-1,1-difluoro-2-methylpropan-2-ol]
IC50 (PDE4; [2]): < 100 nM
Residual ratio (% remaining for 30-minute reaction) [1]: A (a % remaining rate of 75% or more)

CC(C)(O)C(F)(F)Oc1ccc(-c2ccc(F)cn2)c2oc(N3CC4CC(C3)N4)nc12 [Example 329, 1-((2-(3,6-Diazabicyclo[3.1.1]heptan-3-yl)-7-(5-fluoropyridin-2-yl)benzo[d]oxazol-4-yl)oxy)-1,1-difluoro-2-methylpropan-2-ol]
IC50 (PDE4; [2]): < 100 nM
Residual ratio (% remaining for 30-minute reaction) [1]: A (a % remaining rate of 75% or more)

CC(C)(O)C(F)(F)Oc1ccc(-c2ncccn2)c2oc(N3CC4CCC(C3)N4)nc12 [Example 330, 1-((2-(3,8-diazabicyclo [3.2.1]octan-3-yl)-7-(pyrimidin-2-yl)benzo [d]oxazol-4-yl)oxy)-1,1-difluoro-2-methylpropan-2-ol]
IC50 (PDE4; [2]): < 100 nM
Residual ratio (% remaining for 30-minute reaction) [1]: A (a % remaining rate of 75% or more)

CC(C)(O)C(F)(F)Oc1ccc(-c2ccsn2)c2oc(N3CC4CCC(C3)N4)nc12 [Example 331, 1-((2-(3,8-diazabicyclo [3.2.1]octan-3-yl)-7-(isothiazol-3-yl)benzo [d]oxazol-4-yl)oxy)-1,1-difluoro-2-methylpropan-2-ol]
IC50 (PDE4; [2]): < 100 nM
Residual ratio (% remaining for 30-minute reaction) [1]: B (60% or more and less than 75%)

CC(C)(O)C(F)(F)Oc1ccc(-c2ccc(F)cn2)c2oc(N3CC4CCC(C3)N4)nc12 [Example 332, 1-((2-(3,8-diazabicyclo [3.2.1]octan-3-yl)-7-(5-fluoropyridin-2-yl)benzo[d]oxazol-4-yl)oxy)-1,1-difluoro-2-methylpropan-2-ol]
IC50 (PDE4; [2]): < 100 nM
Residual ratio (% remaining for 30-minute reaction) [1]: A (a % remaining rate of 75% or more)

Cc1nsc(-c2ccc(OC(F)(F)C(C)(C)O)c3nc(N4CC5CCC(C4)N5)oc23)n1 [Example 333, 1-((2-(3,8-diazabicyclo [3.2.1]octan-3-yl)-7-(3-methyl-1,2,4-thiadiazol-5-yl)benzo[d]oxazol-4-yl)oxy)-1,1-difluoro-2-methylpropan-2-ol]
IC50 (PDE4; [2]): 100 to 1000 nM
Residual ratio (% remaining for 30-minute reaction) [1]: B (60% or more and less than 75%)

O=S(=O)(c1ccc(-c2nccs2)c2oc(N3CC4CC(C3)N4)nc12)C(F)(F)F [Example 334, 2-(3,6-diazabicyclo [3.1.1]heptan-3-yl)-7-(thiazol-2-yl)-4-((trifluoromethyl)sulfonyl) benzo[d]oxazole]
IC50 (PDE4; [2]): < 100 nM
Residual ratio (% remaining for 30-minute reaction) [1]: B (60% or more and less than 75%)

N#Cc1ccc(-c2nccs2)c2oc(N3CC4CC(C3)N4)nc12 [Example 335, 2-(3,6-diazabicyclo [3.1.1]heptan-3-yl)-7-(thiazol-2-yl)benzo [d]oxazole-4-carbonitrile]
IC50 (PDE4; [2]): < 100 nM
Residual ratio (% remaining for 30-minute reaction) [1]: A (a % remaining rate of 75% or more)

FC(F)(F)c1ccc(Oc2ccc(-c3nccs3)c3oc(N4CC5CC(C4)N5)nc23)nc1 [Example 336, 2-(3,6-diazabicyclo [3.1.1]heptan-3-yl)-7-(thiazol-2-yl)-4-((5-(trifluoromethyl)pyridin-2-yl)oxy)benzo[d]oxazole]
IC50 (PDE4; [2]): < 100 nM
Residual ratio (% remaining for 30-minute reaction) [1]: B (60% or more and less than 75%)

c1ccc(Oc2ccc(-c3nccs3)c3oc(N4CC5CC(C4)N5)nc23)nc1 [Example 337, 2-(3,6-diazabicyclo [3.1.1]heptan-3-yl)-4-(pyridin-2-yloxy)-7-(thiazol-2-yl)benzo[d] oxazole]
IC50 (PDE4; [2]): < 100 nM
Residual ratio (% remaining for 30-minute reaction) [1]: B (60% or more and less than 75%)

c1cnc(Oc2ccc(-c3nccs3)c3oc(N4CC5CC(C4)N5)nc23)nc1 [Example 338, 2-(3,6-diazabicyclo [3.1.1]heptan-3-yl)-4-(pyrimidin-2-yloxy)-7-(thiazol-2-yl)benzo[d]oxazole]
IC50 (PDE4; [2]): < 100 nM
Residual ratio (% remaining for 30-minute reaction) [1]: A (a % remaining rate of 75% or more)

c1cnc(Oc2ccc(-c3nccs3)c3oc(N4CC5CC(C4)N5)nc23)cn1 [Example 339, 2-(3,6-diazabicyclo[3.1.1]heptan-3-yl)-4-(pyrazin-2-yloxy)-7-(thiazol-2-yl)benzo [d]oxazole]
IC50 (PDE4; [2]): < 100 nM
Residual ratio (% remaining for 30-minute reaction) [1]: B (60% or more and less than 75%)

Cc1cc(C(F)(F)F)c(Oc2ccc(-c3nccs3)c3oc(N4CC5CC(C4)N5)nc23)nn1 [Example 340, 2-(3,6-diazabicyclo[3.1.1]heptan-3-yl)-4-((6-methyl-4-(trifluoro-methyl)pyridazin-3-yl)oxy)-7-(thiazol-2-yl)benzo[d] oxazole]
IC50 (PDE4; [2]): < 100 nM
Residual ratio (% remaining for 30-minute reaction) [1]: A (a % remaining rate of 75% or more)

OCc1ccc(Oc2ccc(-c3nccs3)c3oc(N4CC5CC(C4)N5)nc23)nc1 [Example 341, (6-((2-(3,6-diazabicyclo[3.1.1]heptan-3-yl)-7-(thiazol-2-yl)benzo[d]oxazol-4-yl)oxy)pyridin-3-yl)methanol]
IC50 (PDE4; [2]): < 100 nM
Residual ratio (% remaining for 30-minute reaction) [1]: A (a % remaining rate of 75% or more)

OCc1cnc(Oc2ccc(-c3nccs3)c3oc(N4CC5CC(C4)N5)nc23)c(C(F)(F)F)c1 [Example 342, (6-((2-(3,6-diazabicyclo[3.1.1]heptan-3-yl)-7-(thiazol-2-yl)benzo[d]oxazol-4-yl)oxy)-5-(trifluoromethyl)pyridin-3-yl) methanol]
IC50 (PDE4; [2]): < 100 nM
Residual ratio (% remaining for 30-minute reaction) [1]: B (60% or more and less than 75%)

FC(F)(F)Oc1ccc(Oc2ccc(-c3nccs3)c3oc(N4CC5CC(C4)N5)nc23)nc1 [Example 343]
IC50 (PDE4; [2]): < 100 nM
Residual ratio (% remaining for 30-minute reaction) [1]: B (60% or more and less than 75%)

C[S+]([O-])c1ccc(-c2nccs2)c2oc(N3CC4CC(C3)N4)nc12 (centres unmarked) [Example 346, 2-(3,6-diazabicyclo[3.1.1]heptan-3-yl)-4-(methylsulfinyl)-7-(thiazol-2-yl)benzo [d]oxazole]
IC50 (PDE4; [2]): < 100 nM
Residual ratio (% remaining for 30-minute reaction) [1]: A (a % remaining rate of 75% or more)

CS(=O)(=O)c1ccc(-c2nccs2)c2oc(N3CC4CC(C3)N4)nc12 [Example 347, 2-(3,6-diazabicyclo[3.1.1]heptan-3-yl)-4-(methylsulfonyl)-7-(thiazol-2-yl)benzo [d]oxazole]
IC50 (PDE4; [2]): < 100 nM
Residual ratio (% remaining for 30-minute reaction) [1]: A (a % remaining rate of 75% or more)

OCCSc1ccc(-c2nccs2)c2oc(N3CC4CC(C3)N4)nc12 [Example 348, 2-((2-(3,6-diazabicyclo[3.1.1]heptan-3-yl)-7-(thiazol-2-yl)benzo [d]oxazol-4-yl)thio) ethan-1-ol]
IC50 (PDE4; [2]): < 100 nM
Residual ratio (% remaining for 30-minute reaction) [1]: B (60% or more and less than 75%)

[O-][S+](CCO)c1ccc(-c2nccs2)c2oc(N3CC4CC(C3)N4)nc12 (centres unmarked) [Example 349, 2-((2-(3,6-diazabicyclo[3.1.1]heptan-3-yl)-7-(thiazol-2-yl)benzo [d]oxazol-4-yl)sulfinyl)ethan-1-ol]
IC50 (PDE4; [2]): < 100 nM
Residual ratio (% remaining for 30-minute reaction) [1]: A (a % remaining rate of 75% or more)

O=S(=O)(CCO)c1ccc(-c2nccs2)c2oc(N3CC4CC(C3)N4)nc12 [Example 350, 2-((2-(3,6-diazabicyclo[3.1.1]heptan-3-yl)-7-(thiazol-2-yl)benzo [d]oxazol-4-yl)sulfonyl)ethan-1-ol]
IC50 (PDE4; [2]): < 100 nM
Residual ratio (% remaining for 30-minute reaction) [1]: A (a % remaining rate of 75% or more)

CS(=O)(=O)c1ccc(Oc2ccc(-c3nccs3)c3oc(N4CC5CC(C4)N5)nc23)nc1 [Example 352, 2-(3,6-diaza-bicyclo[3.1.1]heptan-3-yl)-4-((5-(methylsulfonyl)pyridin-2-yl)oxy)-7-(thiazol-2-yl)benzo [d]oxazole]
IC50 (PDE4; [2]): < 100 nM
Residual ratio (% remaining for 30-minute reaction) [1]: A (a % remaining rate of 75% or more)

Reference: patent US10669283B2, “Compound and pharmacologically acceptable salt thereof” (MEIJI SEIKA PHARMA CO., LTD., priority 2016, dated 2020)
